Laboratory results reported in ChEMBL document CHEMBL1782056, “A novel series of piperazinyl-pyridine ureas as antagonists of the purinergic P2Y12 receptor” (Bioorg Med Chem Lett, 2011).
Converted amounts (≈) assume the structure as drawn.

Assay: physchem
Details: HBSS buffer, pH 6.5

Point of comparison: `CCOC(=O)c1cnc(N2CCN(C(=O)Nc3ccccc3)CC2)c(Cl)c1`, solubility 40 µM (≈ 15.6 µg/mL). Against it:
- CCOC(=O)C1=C(C)NC(C)=C(C(=O)OC)C1c1cccc(Cl)c1Cl (stereo not given) [FELODIPINE] — 40-fold lower, 1 µM (≈ 0.384 µg/mL)
- CCOC(=O)c1cnc(N2CCN(C(=O)Nc3ccccc3)CC2)c(C#N)c1 — 2.2-fold higher, 90 µM (≈ 34.1 µg/mL)
- C[C@]12CC[C@H]3[C@@H](CCC4=CC(=O)CC[C@@]43C)[C@@H]1CC[C@@H]2O [TESTOSTERONE] — 1.9-fold higher, 75 µM (≈ 21.6 µg/mL)
- CCOC(=O)c1cc(C#N)c(N2CCN(C(=O)Nc3ccccc3)CC2)nc1C(F)(F)F — lower, < 0.1 µM
